The record followed here is patent US20250346943A1, “DEGRADER COMPOUNDS OF QSOX1 mRNA” (UNIVERSITY OF FLORIDA RESEARCH FOUNDATION, INCORPORATED, priority 2022, published 2025).

The test system of the test is human transcriptome. The test can be described thus: Chem-CLIP-Map-Seq transcriptome-wide target profiling in live MDA-MB-231 cells. The format is cell-based. Conditions: 20 μM, 16 h; for number of transcripts enriched (Chem-CLIP-seq): before excluding control probe overlap. How it is done: Additional studies were performed in live MDA-MB-231 cells to profile the cellular targets as well as the small molecule binding site within them, via Chem-CLIP-Map-Seq,^21 which had not previously been applied transcriptome-wide. After treatment (20 μM; 16 h) and cross-linking, total RNA was harvested and fragmented prior to pull-down (FIG. 2A). Random fragmentation was completed first to: 1) reduce sequence bias in library preparation, 2) reduce background signal in the RNA-seq analysis; and 3) allow for only the regions bound by the small molecules to be pulled down rather than the entire transcript, identifying both the target and the binding site within it. In parallel, a control diazirine probe that lacks an RNA-binding functionality (FIG. 2B) was used to identify targets that non-specifically react with the cross-linking moiety, where cross-linking is not driven by the RNA-binding elements.
Genrich uses a null model with a log-normal distribution to calculate p values by comparing sequencing runs of the same RNA sample before and after pull-down.
Chemical-Cross-linking and Isolation by Pull-down (Chem-CLIP) in Live Cells. MDA-MB-231 cells were seeded in 60 mm dishes and allowed to reach ˜80% confluency. The cells were then treated with 20 μM of compound in growth medium and incubated for 16 h. Cells were washed with 1×DPBS and irradiated with UV light for 10 min. Total RNA was harvested using a Zymo Quick-RNA Miniprep Kit per the manufacturer's protocol with DNase treatment. Total RNA was chemically fragmented by using an NEBNext Magnesium RNA Fragmentation Module (E6150S) per manufacturer's protocol to achieve final lengths between 100-150 nucleotides Pull-down of cross-linked RNAs was performed by adding 10 μg of total RNA to 100 μL of azide-disulfide agarose beads (Click Chemistry Tools, 1238-2) pre-washed with 25 mM HEPES, pH 7.0. The click reaction and pull-down were completed as described in “In Vitro Chemical-Crosslinking and Isolation by Pull-down (Chem-CLIP) with Fluorescently Labeled RNA”. The pulled down RNA was purified by RNA CleanXP beads (Beckman, A66514) per manufacturer's protocol.
RNA-seq Library Preparation and Data Analysis. The quality of the pulled down RNA was analyzed by using an Agilent 2100 Bioanalyzer RNA nanochip as well as to confirm fragment lengths. RNA concentration was quantified by Qubit 2.0 Fluorometer (Invitrogen). The input RNA (200 ng) was depleted of ribosomal RNA with NEBNext rRNA Depletion Module (E6310) according to manufacturer's recommendations. Library preparation was performed with NEBNext Ultra II Directional RNA kit (E7760) per manufacturer's protocols. Briefly, the rRNA-depleted samples were reverse transcribed with random hexamer primers to generate first strand cDNA, followed by second strand synthesis with dUTP instead of dTTP. The cDNA was end repaired and adenylated at their 3′ ends, followed by adaptor ligation. The strand information of the RNA was preserved by using USER enzyme (Uracil-specific excision reagent) to degrade the second strand. The cDNA was then PCR amplified with barcoded Illumina-compatible primers to generate the final libraries. These libraries were loaded into a NextSeq 500 v2.5 flow cell and sequenced with 2×40 bp paired-end chemistry. All fastq files were aligned to the human genome by STAR.^9 The output bam files were processed by Genrich (v0.6.1, available at https://github.com/jsh58/Genrich) for peak calling to identify regions of enrichment (p<0.001 and False Discovery Rate=1%). Fold enrichment was calculated by Deeptool^10 and visualized by IGV browser.^11 A minimum read count of 5 and a minimum fold enrichment of 1.5 were applied filter to filter out low-confidence peaks.

As for `C#CCCC1(CCC(=O)Nc2nnc(SCc3ccc(F)c4cccnc34)n2C)N=N1` [Compound F5], the “number of enriched transcripts also enriched by the control probe” value (“number … by the control probe” below) is given as 57 transcripts, the “number of transcripts enriched after eliminating transcripts also bound by the control diazirine” value is 35, the “share of enriched transcripts also enriched by the control probe” value (“share” below) was found to be 62% and the “unique transcripts identified for the small molecule” value came to 3. In addition, the “number of transcripts enriched (Chem-CLIP-seq)” value (shortened to “number … (Chem-CLIP-seq)”) came out at 92 transcripts.

Regarding `C#CCCC1(CCC(=O)Nc2nc(-c3ccc(-n4cccn4)cc3)cs2)N=N1` [Compound F6], the “number … by the control probe” value came to 55 transcripts, the “share” value amounted to 43% and the “number … (Chem-CLIP-seq)” value is recorded as 127 transcripts.

In the case of `C#CCCC1(CCC(=O)N2CCN(c3nncc4sccc34)CC2)N=N1` [Compound F2], the “number … by the control probe” value was determined as 52 transcripts, the “share” value was 31%, the “unique transcripts identified for the small molecule” value worked out at 38 and the “number … (Chem-CLIP-seq)” value is on record as 166 transcripts.

Consider `C#CCCC1(CCC(=O)N(CCNC(=O)c2ccc(C)c(F)c2)Cc2ccncc2)N=N1` [Compound F3], for which the “number … by the control probe” value came to 53 transcripts, the “share” value amounted to 32% and the “number … (Chem-CLIP-seq)” value turned out to be 163 transcripts.
